Assay results: ChEMBL document CHEMBL1201862, “PubChem BioAssay data set” (2004)
Values belong to the compound of their own block, whether it stands above or below them. Activity calls are given as the source filed them.

How the values were obtained:
[1] = molecular target: Alkaline phosphatase, placental type (Homo sapiens, UniProt P05187); assay: human placental alkaline phosphatase inhibition – biochemical, luminescence, confirmation (AID 1512); type: functional
[2] = molecular target: T1, Alkaline phosphatase, tissue-nonspecific isozyme (Homo sapiens, UniProt P05186); assay: potency against alkaline phosphatase TNAP – biochemical, luminescent, dose response, SAR follow-up (AID 1056)
T1 sequence (P05186 whole entry): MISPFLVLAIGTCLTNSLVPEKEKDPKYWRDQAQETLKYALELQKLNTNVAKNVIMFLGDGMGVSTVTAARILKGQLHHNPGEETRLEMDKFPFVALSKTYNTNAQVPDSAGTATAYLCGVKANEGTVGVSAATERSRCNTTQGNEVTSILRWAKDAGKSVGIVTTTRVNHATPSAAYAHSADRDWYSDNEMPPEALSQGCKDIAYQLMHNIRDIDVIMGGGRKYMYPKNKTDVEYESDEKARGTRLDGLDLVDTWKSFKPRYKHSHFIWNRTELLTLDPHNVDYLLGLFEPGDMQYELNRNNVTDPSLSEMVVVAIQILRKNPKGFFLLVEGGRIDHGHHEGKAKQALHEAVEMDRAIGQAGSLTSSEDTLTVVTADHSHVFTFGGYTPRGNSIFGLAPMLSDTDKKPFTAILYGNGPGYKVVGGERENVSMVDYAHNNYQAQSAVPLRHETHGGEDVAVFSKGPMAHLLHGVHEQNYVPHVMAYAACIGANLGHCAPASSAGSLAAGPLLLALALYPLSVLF

[3] = molecular target: T2, Voltage-gated N-type calcium channel alpha-1B subunit/Amyloid beta A4 precursor protein-binding family A member 1 (Homo sapiens, UniProt Q00975+Q02410); type: protein assay
[4] = molecular target: T2, Voltage-gated N-type calcium channel alpha-1B subunit/Amyloid beta A4 precursor protein-binding family A member 1; type: protein assay; remark: listed apart in the source
[5] = viability of HCT116 lacking mutant beta-catenin – cell-based, human colon tumor, dose response (AID 1045); type: functional;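 note: HCT116 colon tumor cells with beta catenin knocked out; cells exposed to compound for 60 hours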
[6] = molecular target: G-protein coupled receptor 55 (Homo sapiens, UniProt Q9Y2T6); assay: inhibition of LPI-stimulated GPR55 beta-arrestin translocation – imaging, U2OS, beta-arrestin-GFP, LPI agonist, primary screen (AID 2013); type: functional;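 note: antagonist potency measured as reduced agonist-driven arrestin aggregation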
[7] = molecular target: T3, Microphthalmia-associated transcription factor (Homo sapiens, UniProt O75030); assay: reducers of TRPM1 reporter luminescence, concentration series – cell-based, SK-MEL-5, cherry-picked, set 3, MITF inhibitor project, dose response (AID 493073); type: functional;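 note: SK-MEL-5 melanoma cells with luciferase driven by the MITF target TRPM1 promoter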
T3 sequence (O75030 whole entry): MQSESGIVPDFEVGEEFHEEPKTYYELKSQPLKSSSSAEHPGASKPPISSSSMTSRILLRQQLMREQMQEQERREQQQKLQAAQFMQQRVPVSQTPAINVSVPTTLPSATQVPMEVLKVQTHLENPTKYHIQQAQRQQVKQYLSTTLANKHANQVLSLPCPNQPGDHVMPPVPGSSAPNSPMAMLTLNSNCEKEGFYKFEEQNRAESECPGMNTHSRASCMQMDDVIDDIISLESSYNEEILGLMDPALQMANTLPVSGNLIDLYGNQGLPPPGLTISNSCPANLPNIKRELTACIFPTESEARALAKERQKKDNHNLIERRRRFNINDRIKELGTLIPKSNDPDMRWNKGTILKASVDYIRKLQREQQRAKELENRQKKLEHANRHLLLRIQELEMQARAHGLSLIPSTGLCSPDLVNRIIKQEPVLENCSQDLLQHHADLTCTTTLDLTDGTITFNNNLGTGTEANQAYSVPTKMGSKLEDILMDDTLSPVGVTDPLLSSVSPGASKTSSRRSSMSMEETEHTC

[8] = molecular target: Beta-galactosidase (Escherichia coli, UniProt Q8VNN2); assay: detection-enzyme interference by beta-gal modulators – biochemical, E. coli enzyme, set 3, artefact control for CCR6 antagonist project, dose response (AID 504712); type: functional
[9] = viability of PTEN-deleted HCT116 cells – cell-based, HCT116 PTEN knockout, dose response (AID 1047); type: functional;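 note: HCT116 colon tumor cells with PTEN knocked out; cells exposed to compound for 60 hours before readout; potency for loss of cell viability measured by luminescence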
[10] = molecular target: T4, E3 ubiquitin-protein ligase XIAP (Homo sapiens, UniProt P98170); assay: small molecules displacing peptide from XIAP – biochemical, IAP family, fluorescence polarization (AID 1018); type: functional
[11] = molecular target: T4, E3 ubiquitin-protein ligase XIAP; assay: Counter Screen using XIAP-Bir3 for Chemical Antagonists of Bir1/2 domains of IAP-family anti-apoptotic proteins. [Related pubchem assays (depositor defined):AID1018, AID1449, AID1514, AID1638, AID1749, AID1750, AID488957, AID488963]

Chain of G-protein coupled receptor 55 (Q9Y2T6 whole entry): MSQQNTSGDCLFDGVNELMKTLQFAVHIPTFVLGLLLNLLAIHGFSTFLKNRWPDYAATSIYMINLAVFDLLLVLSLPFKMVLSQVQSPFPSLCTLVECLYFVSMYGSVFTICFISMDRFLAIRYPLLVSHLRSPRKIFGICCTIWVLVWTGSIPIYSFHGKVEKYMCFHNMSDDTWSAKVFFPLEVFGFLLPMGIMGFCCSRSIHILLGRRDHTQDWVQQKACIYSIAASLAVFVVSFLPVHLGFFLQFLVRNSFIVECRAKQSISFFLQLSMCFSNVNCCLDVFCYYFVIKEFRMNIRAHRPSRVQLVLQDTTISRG
T2 sequence (Q00975 whole entry): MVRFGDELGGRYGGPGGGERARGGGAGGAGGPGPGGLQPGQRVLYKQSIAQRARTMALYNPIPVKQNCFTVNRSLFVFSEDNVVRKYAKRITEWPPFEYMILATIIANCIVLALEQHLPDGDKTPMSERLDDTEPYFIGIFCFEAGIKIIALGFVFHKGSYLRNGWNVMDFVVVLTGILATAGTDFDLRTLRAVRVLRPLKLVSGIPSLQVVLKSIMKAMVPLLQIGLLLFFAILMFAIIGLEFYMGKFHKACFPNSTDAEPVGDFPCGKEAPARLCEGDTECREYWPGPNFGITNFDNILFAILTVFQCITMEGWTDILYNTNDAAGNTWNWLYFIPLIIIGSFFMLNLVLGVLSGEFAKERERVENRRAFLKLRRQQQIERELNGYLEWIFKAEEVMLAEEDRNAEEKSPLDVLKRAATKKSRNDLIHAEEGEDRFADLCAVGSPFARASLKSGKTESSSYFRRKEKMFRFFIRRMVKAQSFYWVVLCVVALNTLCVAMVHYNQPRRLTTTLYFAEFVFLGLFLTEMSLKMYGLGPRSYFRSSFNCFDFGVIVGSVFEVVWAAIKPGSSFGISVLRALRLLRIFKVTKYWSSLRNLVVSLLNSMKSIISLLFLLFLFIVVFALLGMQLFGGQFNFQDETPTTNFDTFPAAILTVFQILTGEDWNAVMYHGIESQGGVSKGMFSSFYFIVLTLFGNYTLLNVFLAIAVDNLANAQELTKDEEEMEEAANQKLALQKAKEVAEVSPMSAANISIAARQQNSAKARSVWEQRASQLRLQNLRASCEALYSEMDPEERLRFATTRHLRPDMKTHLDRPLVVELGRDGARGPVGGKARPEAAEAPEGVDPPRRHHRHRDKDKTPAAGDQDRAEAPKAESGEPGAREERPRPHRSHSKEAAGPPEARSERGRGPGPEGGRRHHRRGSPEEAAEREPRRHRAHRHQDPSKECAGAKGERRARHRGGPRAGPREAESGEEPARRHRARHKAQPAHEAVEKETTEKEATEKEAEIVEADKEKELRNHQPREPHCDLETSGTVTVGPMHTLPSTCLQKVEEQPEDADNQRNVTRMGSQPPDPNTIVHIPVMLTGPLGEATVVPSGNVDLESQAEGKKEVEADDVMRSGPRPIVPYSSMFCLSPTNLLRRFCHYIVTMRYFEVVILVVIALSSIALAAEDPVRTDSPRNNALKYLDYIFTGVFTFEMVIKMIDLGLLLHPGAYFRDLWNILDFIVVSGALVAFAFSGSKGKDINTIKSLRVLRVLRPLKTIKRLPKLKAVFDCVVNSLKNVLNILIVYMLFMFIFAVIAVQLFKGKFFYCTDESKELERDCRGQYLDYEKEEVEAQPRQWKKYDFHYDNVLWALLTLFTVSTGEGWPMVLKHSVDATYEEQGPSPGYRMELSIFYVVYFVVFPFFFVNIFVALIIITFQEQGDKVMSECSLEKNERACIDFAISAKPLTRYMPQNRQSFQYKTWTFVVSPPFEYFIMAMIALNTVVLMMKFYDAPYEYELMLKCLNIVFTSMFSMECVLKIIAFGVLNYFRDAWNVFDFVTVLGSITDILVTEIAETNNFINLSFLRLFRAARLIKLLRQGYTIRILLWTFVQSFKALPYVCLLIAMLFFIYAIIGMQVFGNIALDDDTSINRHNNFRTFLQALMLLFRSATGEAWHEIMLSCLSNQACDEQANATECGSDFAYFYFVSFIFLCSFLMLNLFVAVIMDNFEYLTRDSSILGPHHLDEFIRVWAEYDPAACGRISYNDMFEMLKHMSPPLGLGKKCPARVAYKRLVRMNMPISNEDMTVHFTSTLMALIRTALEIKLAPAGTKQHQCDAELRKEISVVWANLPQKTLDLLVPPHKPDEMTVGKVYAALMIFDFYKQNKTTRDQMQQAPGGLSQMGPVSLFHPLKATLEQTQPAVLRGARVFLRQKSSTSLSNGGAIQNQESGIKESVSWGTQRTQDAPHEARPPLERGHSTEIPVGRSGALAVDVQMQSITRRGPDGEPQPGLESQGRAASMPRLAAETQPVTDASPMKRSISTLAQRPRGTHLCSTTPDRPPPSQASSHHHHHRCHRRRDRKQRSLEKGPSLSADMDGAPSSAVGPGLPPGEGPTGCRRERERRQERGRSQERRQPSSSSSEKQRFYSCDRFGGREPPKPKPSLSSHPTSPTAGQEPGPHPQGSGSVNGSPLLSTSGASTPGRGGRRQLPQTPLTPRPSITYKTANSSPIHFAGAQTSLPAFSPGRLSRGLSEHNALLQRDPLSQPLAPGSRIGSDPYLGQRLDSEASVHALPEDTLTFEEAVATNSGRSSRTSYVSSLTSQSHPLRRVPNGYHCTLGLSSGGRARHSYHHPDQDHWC
T2 sequence (Q02410 whole entry): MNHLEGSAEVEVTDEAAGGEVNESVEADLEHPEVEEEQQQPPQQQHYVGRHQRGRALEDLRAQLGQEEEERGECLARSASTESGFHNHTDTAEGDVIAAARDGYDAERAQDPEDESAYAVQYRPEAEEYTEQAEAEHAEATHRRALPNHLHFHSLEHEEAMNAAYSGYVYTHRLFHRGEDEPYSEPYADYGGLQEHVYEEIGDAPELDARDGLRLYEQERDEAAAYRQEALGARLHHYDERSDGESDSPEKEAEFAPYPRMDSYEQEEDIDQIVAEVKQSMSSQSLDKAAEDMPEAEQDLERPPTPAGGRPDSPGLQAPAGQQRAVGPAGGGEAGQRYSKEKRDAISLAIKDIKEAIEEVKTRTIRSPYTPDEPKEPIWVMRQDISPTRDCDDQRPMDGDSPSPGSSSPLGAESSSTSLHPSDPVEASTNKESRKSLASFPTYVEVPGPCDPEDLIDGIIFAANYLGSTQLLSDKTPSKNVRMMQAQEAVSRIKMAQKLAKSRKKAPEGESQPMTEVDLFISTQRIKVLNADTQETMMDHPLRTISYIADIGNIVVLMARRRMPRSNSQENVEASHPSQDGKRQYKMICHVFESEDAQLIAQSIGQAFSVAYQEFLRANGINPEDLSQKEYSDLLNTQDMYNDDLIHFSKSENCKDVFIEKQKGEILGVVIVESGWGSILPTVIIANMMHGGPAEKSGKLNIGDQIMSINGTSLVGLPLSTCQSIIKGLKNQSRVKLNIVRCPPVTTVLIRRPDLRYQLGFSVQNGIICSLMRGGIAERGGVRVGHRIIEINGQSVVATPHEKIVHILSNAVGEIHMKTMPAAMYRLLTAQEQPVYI
T4 sequence (P98170 whole entry): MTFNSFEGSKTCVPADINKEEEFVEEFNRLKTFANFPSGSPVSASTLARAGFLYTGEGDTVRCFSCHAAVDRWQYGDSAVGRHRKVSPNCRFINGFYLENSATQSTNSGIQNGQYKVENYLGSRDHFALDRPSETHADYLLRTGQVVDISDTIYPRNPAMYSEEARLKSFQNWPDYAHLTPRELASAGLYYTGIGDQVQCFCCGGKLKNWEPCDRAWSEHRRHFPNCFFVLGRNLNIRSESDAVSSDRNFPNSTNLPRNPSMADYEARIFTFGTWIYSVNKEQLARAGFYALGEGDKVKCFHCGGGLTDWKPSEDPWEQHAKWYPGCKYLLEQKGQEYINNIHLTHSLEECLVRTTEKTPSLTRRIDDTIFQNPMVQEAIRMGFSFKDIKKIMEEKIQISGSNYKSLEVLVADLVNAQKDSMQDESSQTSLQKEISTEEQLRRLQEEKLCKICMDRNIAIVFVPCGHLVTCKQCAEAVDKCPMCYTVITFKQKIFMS
Chain of Alkaline phosphatase, placental type (P05187 whole entry): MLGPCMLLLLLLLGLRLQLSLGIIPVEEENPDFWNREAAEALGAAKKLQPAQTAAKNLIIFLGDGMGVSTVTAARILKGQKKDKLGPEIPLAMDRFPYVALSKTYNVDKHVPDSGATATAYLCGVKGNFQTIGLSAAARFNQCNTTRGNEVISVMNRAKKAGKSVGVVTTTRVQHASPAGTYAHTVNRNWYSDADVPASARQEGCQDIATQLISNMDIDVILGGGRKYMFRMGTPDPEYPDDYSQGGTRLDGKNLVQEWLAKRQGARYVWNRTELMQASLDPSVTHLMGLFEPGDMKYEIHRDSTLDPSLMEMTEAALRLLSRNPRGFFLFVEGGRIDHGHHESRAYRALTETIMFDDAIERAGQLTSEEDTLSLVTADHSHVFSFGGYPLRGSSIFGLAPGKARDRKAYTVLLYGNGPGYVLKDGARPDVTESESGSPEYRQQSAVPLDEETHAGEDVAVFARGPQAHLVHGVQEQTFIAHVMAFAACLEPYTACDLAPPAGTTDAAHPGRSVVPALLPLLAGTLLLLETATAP

IC50 [1]: > 100 µM (inactive) | IC50 [2]: 78.5 µM (active)
Structure (SMILES): Cc1cccc(-c2nc3c(c(SCC(=O)c4ccc(O)c(O)c4)n2)CCCC3)c1

IC50 [6]: 3.03 µM (active)
Structure (SMILES): CCOC(=O)c1cc(C#N)c(Oc2ccc(F)cc2)nc1-c1ccccc1

The next lines start with the compound.

Structure (SMILES): CC1=C(C(=O)O)N2C(=O)C(NC(=O)CCCC(=O)O)C2SC1 (centres undefined)
IC50 [3]: > 50 µM (inactive) | IC50 [4]: > 56.8 µM (not active)

Structure (SMILES): CC1=NOC(=O)/C1=C\c1ccc(-c2cccc(Cl)c2)o1
EC50 [5]: 11.8 µM (active) | IC50 [6]: 8.52 µM (active) | AC50 [7]: 5.36 µM (active) | IC50 [8]: > 66.6 µM (inactive) | EC50 [9]: 14.5 µM (active)

Structure (SMILES): COc1ccc(-n2c(SCC(=O)c3ccc(O)c(O)c3)nnc2-c2ccc(C)cc2)cc1
IC50 [1]: 5.84 µM (active) | IC50 [2]: > 100 µM (inactive)

Structure (SMILES): CCOc1ccccc1NC(=O)C1=C(C)NC(=S)NC1c1cccs1 (centres undefined)
IC50 [10]: > 100 µM (not active) | IC50 [11]: > 100 µM (inactive)
